This is an account of results in patent US10000488B2, “Heterocyclic compound” (TAKEDA PHARMACEUTICAL COMPANY LIMITED, priority 2014, dated 2018).

The target of experiment [1] is T1, RORγt (Homo sapiens, UniProt P51449).
T1 sequence (P51449 1-497 isoform P51449-2): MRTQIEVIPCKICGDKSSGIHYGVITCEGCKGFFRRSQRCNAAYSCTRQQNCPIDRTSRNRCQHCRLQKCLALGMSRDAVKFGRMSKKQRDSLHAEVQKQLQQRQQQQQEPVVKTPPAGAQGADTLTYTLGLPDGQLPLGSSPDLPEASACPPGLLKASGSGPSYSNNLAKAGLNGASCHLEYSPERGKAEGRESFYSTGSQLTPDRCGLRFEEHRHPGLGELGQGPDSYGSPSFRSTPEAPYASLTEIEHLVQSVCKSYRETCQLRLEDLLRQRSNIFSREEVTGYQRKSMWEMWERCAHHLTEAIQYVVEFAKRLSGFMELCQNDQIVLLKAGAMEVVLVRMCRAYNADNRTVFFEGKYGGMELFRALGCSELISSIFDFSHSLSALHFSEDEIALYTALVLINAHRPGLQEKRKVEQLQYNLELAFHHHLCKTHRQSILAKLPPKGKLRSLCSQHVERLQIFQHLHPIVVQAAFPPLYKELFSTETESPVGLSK
Nature of the experiment: RORγt binding test using fluorescent-labeled synthetic ligand (TR-FRET). Particulars: for inhibition at 1 µM: test compound 1 μM, read-out: binding inhibitory rate (%) of fluorescent-labeled synthetic ligand to RORγt at test compound 1 μM. How it is done:
RORγt Binding Test Using Fluorescent-Labeled Synthetic Ligand
The binding activity of the test compound to RORγt was measured by a time resolved fluorescence resonance energy transfer (TR-FRET) utilizing histidine-tagged RORγt, fluorescent-labeled synthetic ligand, and terbium-labeled anti-histidine tag antibody (Invitrogen). First, a test compound diluted with an assay buffer (20 mM Tris-HCl (pH 7.5), 100 mM NaCl, 1 mM DTT, 0.1% BSA) was added to a 384 well plate by 3 μL. Then, RORγt diluted with an assay buffer to 240 nM was added by 3 μL, after which fluorescent-labeled synthetic ligand diluted with the assay buffer to 12 μM was added by 3 μL, and the mixture was stood at room temperature for 20 min. Thereafter, a terbium-labeled anti-histidine tag antibody diluted with the assay buffer to 8 nM was added by 3 μL. The mixture was stood at room temperature for 20 min, and fluorescence intensity (excitation wavelength 320 nm, fluorescence wavelength 520 nm, delay time 100 microseconds) was measured by Envision (PerkinElmer).

Experiment [2] deals with T1, RORγt. Nature of the experiment: Jurkat reporter test (human IL-17 ROR response element luciferase reporter, RORγt vector). It counts as cell-based. To be noted: Jurkat cells; for inhibition at 3 µM: test compound 3 μM, read-out: luminescence level inhibitory rate (%) at test compound 3 μM. As to the method: The Jurkat cells used for the reporter test were cultured in a culture medium (RPMI (Invitrogen), 10% FCS (AusGeneX), 100 U/mL penicillin, 100 μg/mL streptomycin). On the day of the test, 4×10^7 cells were recovered by a centrifugal operation (1000 rpm, for 5 min) and suspended in PBS (phosphate buffered saline) (Invitrogen). Thereafter, the cells were recovered again by a centrifugal operation, and suspended in 2 mL of R buffer (NEON transfection kit, Invitrogen). […] Gene transfer was performed by Electroporation apparatus (NEON, Invitrogen) under the conditions of pulse voltage 1350 V, interval 10 milliseconds, number of times 3. The cells after gene transfer were suspended in 40 mL of a reaction medium (RPMI, 10% Lipid reduced FCS (HyClone), 10 mM HEPES (pH 7.5), 100 U/mL penicillin, 100 μg/mL streptomycin, 5 μM lovastatin), and plated in a 96 well plate by 90 μL. A test compound diluted with the reaction medium was added by 10 μL, and the cells were cultured overnight in an incubator. Bright-Glo (Promega) was added by 100 μL, and the mixture was stirred at room temperature for 10 min, and the luminescence level was measured by Envision (PerkinElmer).

The target of experiment [3] is T1, RORγt. The experiment is described as follows: Cofactor recruitment test (Alpha Screen, biotinylated SRC-1 peptide). It counts as biochemical. Particulars: for inhibition at 1 µM: read-out: signal value inhibitory rate (%) at test compound 1 μM. As to the method:
Cofactor Recruitment Test
Cofactor recruitment test was performed by Alpha Screen (Histidine Detection Kit, PerkinElmer) method. First, a test compound was diluted with an assay buffer (50 mM Tris-HCl (pH 7.5), 50 mM KCl, 1 mM DTT, 0.1% BSA) and added to a 384 well plate by 5 μL. […] The mixture was stood in a dark place for 1 hr, and the signal value was measured by Envision (PerkinElmer).

Consider `CC(C)n1c(=O)n(CC2CC2)c(=O)c2cc(NC(=O)N3CCCC(NC(=O)c4ccc(C#N)cc4)C3)ccc21` (stereo not drawn) [Example 180, 3-((4-cyanobenzoyl)amino)-N-(3-(cyclopropylmethyl)-1-isopropyl-2,4-dioxo-1,2,3,4-tetrahydroquinazolin-6-yl)piperidine-1-carboxamide], for which the values for the inhibition at 1 µM in experiment [1] and in experiment [3] were 102% and 111%, respectively. In addition, in experiment [2], the inhibition at 3 µM was found to be 101%.
For the compound `CC(C)n1c(=O)n(CC2CC(F)(F)C2)c(=O)c2cc(NC(=O)N3CCO[C@@H](C(=O)Nc4ccc(C#N)c(Cl)c4)C3)c(F)cc21` [Example 350, (2R)—N^2-(3-chloro-4-cyanophenyl)-N^4-(3-((3,3-difluorocyclobutyl)methyl)-7-fluoro-1-isopropyl-2,4-dioxo-1,2,3,4-tetrahydroquinazolin-6-yl)morpholine-2,4-dicarboxamide], the inhibition at 1 µM in experiment [1] turned out to be 102%; in experiment [3], 108%. Further, the inhibition at 3 µM in experiment [2] turned out to be 107%.
The corresponding values for `COC(=O)NCc1ccc(C(=O)N[C@@H]2CCCN(C(=O)Nc3cc4c(=O)n(CC5CC5)c(=O)n(C(C)C)c4cc3F)C2)cc1` [Example 321, methyl (4-(((3R)-1-((3-(cyclopropylmethyl)-7-fluoro-1-isopropyl-2,4-dioxo-1,2,3,4-tetrahydroquinazolin-6-yl)carbamoyl)piperidin-3-yl)carbamoyl)benzyl)carbamate] are 101%, 105% and 101%.
As to `COC(=O)N1Cc2ccc(C(=O)N[C@@H]3CCCN(C(=O)Nc4cc5c(=O)n(CC6CC6)c(=O)n(C(C)C)c5cc4F)C3)cc2C1` [Example 343, methyl 5-(((3R)-1-((3-(cyclopropylmethyl)-7-fluoro-1-isopropyl-2,4-dioxo-1,2,3,4-tetrahydroquinazolin-6-yl)carbamoyl)piperidin-3-yl)carbamoyl)-1,3-dihydro-2H-isoindole-2-carboxylate], the inhibition at 1 µM worked out at 101% in experiment [1] and 107% in experiment [3]. Further, the inhibition at 3 µM in experiment [2] was 108%.
The like results for `CC(C)n1c(=O)n(CC2CC2)c(=O)c2cc(NC(=O)N3CCO[C@@H](C(=O)Nc4cnc(C#N)c(Cl)c4)C3)ccc21` [Example 122, (2R)-N^2-(5-chloro-6-cyanopyridin-3-yl)-N^4-(3-(cyclopropylmethyl)-1-isopropyl-2,4-dioxo-1,2,3,4-tetrahydroquinazolin-6-yl)morpholine-2,4-dicarboxamide] were, in that order, 101%, 112% and 103%.
As to `CC(C)n1c(=O)n(CC2CC2)c(=O)c2cc(NC(=O)N3CCCC(NC(=O)c4ccc(C#N)c(Cl)c4)C3)ccc21` (stereo not drawn) [Example 88, 3-((3-chloro-4-cyanobenzoyl)amino)-N-(3-(cyclopropylmethyl)-1-isopropyl-2,4-dioxo-1,2,3,4-tetrahydroquinazolin-6-yl)piperidine-1-carboxamide], the inhibition at 1 µM in experiment [1] and in experiment [3] was 102% each time. Besides, the inhibition at 3 µM in experiment [2] was determined as 102%.
On to `CC(C)n1c(=O)n(CC2CC(F)(F)C2)c(=O)c2cc(NC(=O)N3CCC[C@@H](n4cnc5cc(C#N)ccc5c4=O)C3)c(F)cc21` [Example 363, (3R)-3-(7-cyano-4-oxoquinazoline-3(4H)-yl)-N-(3-((3,3-difluorocyclobutyl)methyl)-7-fluoro-1-isopropyl-2,4-dioxo-1,2,3,4-tetrahydroquinazolin-6-yl)piperidine-1-carboxamide], for which the inhibition at 1 µM in experiment [1] worked out at 102%; in experiment [3], 106%. The inhibition at 3 µM in experiment [2] was determined as 107%.
For the compound `CC(C)n1c(=O)n(CC2CC2(F)F)c(=O)c2cc(NC(=O)N3CCOC(C(=O)Nc4ccc(C#N)c(Cl)c4)C3)c(F)cc21` (single isomer, unassigned) [Example 368, (2R)—N^2-(3-chloro-4-cyanophenyl)-N^4-(3-(((1R or 1S)-2,2-difluorocyclopropyl)methyl)-7-fluoro-1-isopropyl-2,4-dioxo-1,2,3,4-tetrahydroquinazolin-6-yl)morpholine-2,4-dicarboxamide (one stereoisomer, quinazolinedione: derived from tR2)], in experiment [1], the “binding inhibitory rate (%) of fluorescent-labeled synthetic ligand to RORγt at test compound 1 μM” value was 102%. Besides, the “luminescence level inhibitory rate (%) at test compound 3 μM” value in experiment [2] was 108%. Also, the “signal value inhibitory rate (%) at test compound 1 μM” value in experiment [3] (test compound 1 μM) came out at 105%.
With `CC(C)n1c(=O)n(CC2CC2(F)F)c(=O)c2cc(NC(=O)N3CCOC(C(=O)Nc4ccc(C#N)c(Cl)c4)C3)c(F)cc21` (single isomer, unassigned) [Example 366, (2R)—N^2-(3-chloro-4-cyanophenyl)-N^4-(3-(((1R or 1S)-2,2-difluorocyclopropyl)methyl)-7-fluoro-1-isopropyl-2,4-dioxo-1,2,3,4-tetrahydroquinazolin-6-yl)morpholine-2,4-dicarboxamide (one stereoisomer, quinazolinedione: derived from tR1)], the results for the inhibition at 1 µM in experiment [1] and in experiment [3] were 102% and 105%, respectively. Further, in experiment [2], the inhibition at 3 µM was found to be 108%.
As to `CC(C)n1c(=O)n(CC2CC2)c(=O)c2cc(NC(=O)N3CCC[C@@H](n4cnc5cc(C#N)ccc5c4=O)C3)c(F)cc21` [Example 324, (3R)-3-(7-cyano-4-oxoquinazoline-3(4H)-yl)-N-(3-(cyclopropylmethyl)-7-fluoro-1-isopropyl-2,4-dioxo-1,2,3,4-tetrahydroquinazolin-6-yl)piperidine-1-carboxamide], the inhibition at 1 µM in experiment [1] worked out at 102%; in experiment [3] it was 106%. Moreover, the inhibition at 3 µM in experiment [2] came to 103%.
For `COc1ccc(C(=O)N[C@@H]2CCCN(C(=O)Nc3ccc4c(c3)c(=O)n(CC3CC3)c(=O)n4C(C)C)C2)cc1` [Example 244, (3R)-N-(3-(cyclopropylmethyl)-1-isopropyl-2,4-dioxo-1,2,3,4-tetrahydroquinazolin-6-yl)-3-((4-methoxybenzoyl)amino)piperidine-1-carboxamide], the inhibition at 1 µM in experiment [1] was 102%; in experiment [3], 105%. Further, in experiment [2], the inhibition at 3 µM was found to be 104%.
Consider `CC(C)n1c(=O)n(C[C@@H]2CCCO2)c(=O)c2cc(NC(=O)N3CCO[C@@H](C(=O)Nc4cc(Cl)c(C#N)cc4F)C3)c(F)cc21` [Example 358, (2R)—N^2-(5-chloro-4-cyano-2-fluorophenyl)-N^4-(7-fluoro-1-isopropyl-2,4-dioxo-3-((2S)-tetrahydrofuran-2-ylmethyl)-1,2,3,4-tetrahydroquinazolin-6-yl)morpholine-2,4-dicarboxamide], for which the inhibition at 1 µM in experiment [1] turned out to be 101%; in experiment [3] it was 107%. Also, the inhibition at 3 µM in experiment [2] was 106%.
The corresponding values for `CC(C)n1c(=O)n(CC2CC2)c(=O)c2cc(NC(=O)N3CCCC(NC(=O)Nc4ccccc4)C3)ccc21` (stereo not drawn) [Example 146, N-(3-(cyclopropylmethyl)-1-isopropyl-2,4-dioxo-1,2,3,4-tetrahydroquinazolin-6-yl)-3-((phenylcarbamoyl)amino) piperidine-1-carboxamide] are 102%, 103% and 101%.
